Here are results for 31 molecules from patent publication US12612412B2, “Antiviral heterocyclic compounds” (Enanta Pharmaceuticals, Inc., priority 2021, dated 2026).

Assay [1] concerns HMPV clinical isolate TN/1501/A1. Kind of assay: HMPV antiviral assay Method-B (clinical isolate TN/1501/A1 in LLC-MK2 cells, ATP-Lite readout). Particulars: human metapneumovirus, LLC-MK2, 144 h, hMPV WT1501 (clinical isolate TN/1501/A1), 6 days. It is filed as cell-based, Human metapneumovirus (HMPV). In short, it runs like this: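 LLC-MK2 cells infected in suspension with TN/1501/A1 at MOI 0.014 in serum-free medium with 2 μg/mL TPCK-trypsin (final), incubated 6 days at 37° C. Compounds tested in duplicate, 10-point 3-fold dilutions from 10 μM. Cell health read by ATP-Lite luminescence, normalised to virus-only and cells-only controls; EC50 by four-parameter logistic fit.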

Assay [2] deals with genotype A, "Long" strain RSV. The experiment in a line: RSV-A assay (CPE protection in Hep-2 cells, ATPlite readout). It is filed as cell-based, Human respiratory syncytial virus (HRSV). Particulars: human respiratory syncytial virus, MOI 0.1, CPE protection. The method in brief:
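Hep-2 cells (8,000/well) were treated with 2-fold serial compound dilutions in duplicate and infected with RSV at MOI 0.1. After 5 days, protection from cytopathic effect was measured as cell viability by ATPlite luminescence, and EC50 values were derived.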

The mark [3] stands for this setting: RSV-A Long strain, read-out: Human RSV-A (“Long”) EC50.
The mark [4] stands for this setting: genotype A “Long” strain RSV, read-out: Human RSV-A (“Long”).

Read-outs that look alike come from different tables or passages of the source.

Regarding `NC(=O)[C@@]1(CF)COc2c1cc([C@@](O)(CNC(=O)c1cc(OC3CC3)c3ncccc3c1)C1CC1)nc2-c1ccc(F)cc1` [Example 1054], the figures for the EC50 in assay [1] and in assay [2] (setting [3]) were more than 500 nM and less than 200 nM, respectively.

`COc1cc(C(=O)NC[C@](O)(c2cc3c(c(-c4ccc(Cl)c(F)c4F)n2)OC[C@]3(C)C(N)=O)C(F)(F)F)cc2cn(C3CC3)nc12` [Example 929]: the figures for the EC50 in assay [1] and in assay [2] (setting [3]) were less than 500 nM and less than 200 nM, respectively.

With `COc1cc(C(=O)NC[C@](O)(c2cc3c(c(-c4c(F)ccc(Cl)c4F)n2)OC[C@]3(C)C(N)=O)C2CC2)cc2cn(C3(F)CC3)nc12` [Example 1165], the figures for the EC50 in assay [1] and in assay [2] (setting [3]) were less than 500 nM and less than 200 nM, respectively.

Consider `COc1cc(C(=O)NC[C@](O)(c2cc3c(c(-c4ccc5c(c4)C(F)(F)C(=O)N5)n2)OC[C@]3(C)C(N)=O)C(F)(F)F)cc2cn(C3CC3)nc12` [Example 995], for which the EC50 in assay [1] is more than 500 nM; in assay [2] (setting [3]), more than 200 nM.

As to `C[C@]1(C(N)=O)COc2c(-c3ccc4c(c3)OC(F)(F)O4)nc([C@@](O)(CNC(=O)c3cc(Cl)c4nn(C5CC5)cc4c3)C3CC3)c(F)c21` [Example 858], the EC50 was less than 500 nM in assay [1] and less than 200 nM in assay [2] (setting [3]).

Consider `COc1cc(C(=O)NC[C@](O)(c2cc3c(c(-c4ccc5c(c4)OC(F)(F)O5)n2)OC[C@]3(C)C(N)=O)C(F)(F)F)cc2cc(C3CC3)nn12` [Example 697], for which the results for the EC50 in assay [1] and in assay [2] (setting [4]) were less than 500 nM and less than 200 nM, respectively.

Take `COc1cc(C(=O)NC[C@](O)(c2cc3c(c(-c4cc(Cl)c(F)cc4F)n2)OC[C@]3(C)C(N)=O)C2CC2)cc2cn(C(F)F)nc12` [Example 662]: the EC50 was less than 500 nM in assay [1] and less than 200 nM in assay [2] (setting [4]).

As to `COc1cc(C(=O)NC[C@](O)(c2cc3c(c(-c4ccc(-c5ccccc5)cc4)n2)OC[C@]3(C)C(N)=O)C(F)(F)F)cc2cn(C3CC3)nc12` [Example 1249], the results for the EC50 in assay [1] and in assay [2] (setting [3]) were more than 500 nM and more than 200 nM, respectively.

Turning to `COc1cc(C(=O)NC[C@](O)(c2cc3c(c(-c4ccc5c(c4)OC(F)(F)O5)n2)OC[C@]3(C)C(N)=O)C(F)(F)F)cc2cc(C)nnc12` [Example 764], the EC50 in assay [1] was less than 500 nM; in assay [2] (setting [4]), less than 200 nM.

Regarding `COc1cc(C(=O)NC[C@](O)(c2cc3c(c(-c4ccc5c(c4)OC(F)(F)O5)n2)OC[C@]3(C)C(N)=O)C(F)(F)F)cc2cc(C3CC3)nnc12` [Example 765], the figures for the EC50 in assay [1] and in assay [2] (setting [4]) were less than 500 nM and less than 200 nM, respectively.

Regarding `C[C@]1(C(N)=O)COc2c1cc([C@@](O)(CNC(=O)c1cc(F)c3nc(N)sc3c1)C1CC1)nc2-c1ccc(F)c(Cl)c1` [Example 704], the values for the EC50 in assay [1] and in assay [2] (setting [4]) were less than 500 nM and less than 200 nM, respectively.

In the case of `COc1cc(C(=O)NC[C@](O)(c2cc3c(c(-c4ccc(F)cc4)n2)OC[C@]3(C)C(N)=O)C(F)(F)F)cc2cc(C#N)cnc12` [Example 1134], the values for the EC50 in assay [1] and in assay [2] (setting [3]) were more than 500 nM and less than 200 nM, respectively.

Take `COc1cc(C(=O)NC[C@](O)(c2cc3c(c(-c4ccc(F)c(Cl)c4)n2)OC[C@]3(C(N)=O)C(F)F)C(F)(F)F)cc2sc(C)nc12` [Example 1018]: the EC50 in assay [1] is more than 500 nM; in assay [2] (setting [3]) it was more than 200 nM.

`COc1cc(C(=O)NC[C@](O)(c2cc3c(c(-c4ccc(F)cc4)n2)OC[C@@]3(CF)C(N)=O)C2CC2)cc2cc(C3CC3)nn12` [Example 1059]: the EC50 in assay [1] was more than 500 nM; in assay [2] (setting [3]), more than 200 nM.

Take `COc1cc(C(=O)NC[C@](O)(c2cc3c(c(-c4ccc(F)cc4)n2)OC[C@]3(C)C(N)=O)C(F)(F)F)cc2cc(C(F)F)nnc12` [Example 1069]: the EC50 is more than 500 nM in assay [1] and less than 200 nM in assay [2] (setting [3]).

Consider `COc1cc(C(=O)NC[C@](O)(c2cc3c(c(-c4ccc(F)c(Cl)c4)n2)OC[C@]3(C)C(N)=O)C2CC2)cc2cn(C3(Cl)CC3)nc12` [Example 841], for which the EC50 is less than 500 nM in assay [1] and less than 200 nM in assay [2] (setting [3]).

On to `Cc1cnc2c(OC(F)F)cc(C(=O)NC[C@](O)(c3cc4c(c(-c5ccc(F)c(F)c5Cl)n3)OC[C@]4(C)C(N)=O)C3CC3)cc2c1` [Example 566], for which the EC50 was less than 500 nM in assay [1] and less than 200 nM in assay [2] (setting [4]).

Turning to `COc1cc(C(=O)NC[C@](O)(c2cc3c(c(-c4csc5c(F)cccc45)n2)OC[C@]3(C)C(N)=O)C2CC2)cc2cn(C3(F)CC3)nc12` [Example 604], the EC50 in assay [1] is less than 500 nM; in assay [2] (setting [4]), less than 200 nM.

As to `Cc1onc2ccc(C(=O)NC[C@](O)(c3cc4c(c(-c5ccc(F)cc5)n3)OC[C@]4(C)C(N)=O)C(F)(F)F)cc12` [Example 887], the EC50 in assay [1] was more than 500 nM; in assay [2] (setting [3]) it was less than 200 nM.

With `Cc1cnc2c(OC(F)F)cc(C(=O)NC[C@](O)(c3cc4c(c(-c5ccc(F)c(F)c5F)n3)OC[C@]4(C)C(N)=O)C(F)(F)F)cc2c1` [Example 523], the EC50 in assay [1] was less than 500 nM; in assay [2] (setting [4]), less than 200 nM.

With `COc1cc(C(=O)NC[C@](O)(c2cc3c(c(-c4ccc(F)c(Cl)c4)n2)OC[C@]3(C)C(N)=O)C2CC2)cc2sc(C)nc12` [Example 722], the EC50 in assay [1] is less than 500 nM; in assay [2] (setting [4]) it was less than 200 nM.

With `COc1cc(C(=O)NC[C@](O)(c2cc3c(c(-c4ccc5c(c4)OC(F)(F)O5)n2)OC[C@]3(C)C(N)=O)C(F)(F)F)ccc1OC1CC1` [Example 817], the figures for the EC50 in assay [1] and in assay [2] (setting [4]) were less than 500 nM and less than 200 nM, respectively.

In the case of `COc1cc(C(=O)NC[C@](O)(c2cc3c(c(-c4ccc(F)c(Cl)c4F)n2)OC[C@]3(C)C(N)=O)C2CC2)cc2cc(C(F)(F)F)cnc12` [Example 572], the EC50 in assay [1] was less than 500 nM; in assay [2] (setting [4]), less than 200 nM.

As for `Cc1cnc2c(OC(F)F)cc(C(=O)NC[C@](O)(c3cc4c(c(-c5ccc(F)c(Cl)c5F)n3)OC[C@]4(C)C(N)=O)C3(F)CC3)cc2c1` [Example 753], the EC50 in assay [1] is less than 500 nM; in assay [2] (setting [4]), less than 200 nM.

On to `C[C@]1(C(N)=O)COc2c1cc([C@@](O)(CNC(=O)c1ccc(OC3CC3)c3nccn13)C(F)(F)F)nc2-c1ccc(F)cc1` [Example 702], for which the values for the EC50 in assay [1] and in assay [2] (setting [4]) were more than 500 nM and less than 200 nM, respectively.

Turning to `C[C@]1(C(N)=O)COc2c1cc([C@@](O)(CNC(=O)c1cc(OC3CC3)c3nn(C(F)F)cc3c1)C(F)(F)F)nc2-c1csc2c(F)cccc12` [Example 606], the EC50 was less than 500 nM in assay [1] and less than 200 nM in assay [2] (setting [4]).

Consider `COc1cc(C(=O)NC[C@](O)(c2cc3c(c(-c4cc(F)c(Cl)cc4F)n2)OC[C@]3(C)C(N)=O)C2CC2)cc2cn(C3(F)CC3)nc12` [Example 1180], for which the EC50 was less than 500 nM in assay [1] and less than 200 nM in assay [2] (setting [3]).

Regarding `COc1cc(C(=O)NC[C@](O)(c2cc3c(c(-c4ccc5c(c4)OC(F)(F)O5)n2)OC[C@]3(C)C(N)=O)C2(F)CC2)cc2sc(C)nc12` [Example 727], the values for the EC50 in assay [1] and in assay [2] (setting [4]) were less than 500 nM and less than 200 nM, respectively.

Regarding `C[C@]1(C(N)=O)COc2c1cc([C@@](O)(CNC(=O)c1ccc3nn(C4CC4)cc3c1)C1CC1)nc2-c1ccc(F)c(Cl)c1` [Example 815], the EC50 in assay [1] is less than 500 nM; in assay [2] (setting [4]), less than 200 nM.

For the molecule `COc1cc(C(=O)NC[C@](O)(c2cc3c(c(-c4ccc(F)c(C#N)c4F)n2)OC[C@]3(C)C(N)=O)C(F)(F)F)cc2cn(C3CC3)nc12` [Example 1080], the figures for the EC50 in assay [1] and in assay [2] (setting [3]) were less than 500 nM and less than 200 nM, respectively.

With `Cc1cnc2c(Cl)cc(C(=O)NC[C@](O)(c3cc4c(c(-c5ccc(F)c(F)c5F)n3)OC[C@]4(C)C(N)=O)C(F)(F)F)cc2c1` [Example 513], the figures for the EC50 in assay [1] and in assay [2] (setting [4]) were less than 500 nM and less than 200 nM, respectively.
